Measurements published in ChEMBL document CHEMBL5291721, “A preclinical secondary pharmacology resource illuminates target-adverse drug reaction associations of marketed drugs” (Nat Commun, 2023).

Legend:
[1] = target: Voltage-dependent L-type calcium channel subunit alpha-1C (Rattus norvegicus, UniProt P22002); type: functional
[2] = target: Glutamate receptor ionotropic, NMDA 1 (Rattus norvegicus, UniProt P35439)
Vasopressin V1a receptor = Vasopressin V1a receptor (Homo sapiens, UniProt P37288)
Vasopressin V1a receptor, sequence (P37288 whole entry): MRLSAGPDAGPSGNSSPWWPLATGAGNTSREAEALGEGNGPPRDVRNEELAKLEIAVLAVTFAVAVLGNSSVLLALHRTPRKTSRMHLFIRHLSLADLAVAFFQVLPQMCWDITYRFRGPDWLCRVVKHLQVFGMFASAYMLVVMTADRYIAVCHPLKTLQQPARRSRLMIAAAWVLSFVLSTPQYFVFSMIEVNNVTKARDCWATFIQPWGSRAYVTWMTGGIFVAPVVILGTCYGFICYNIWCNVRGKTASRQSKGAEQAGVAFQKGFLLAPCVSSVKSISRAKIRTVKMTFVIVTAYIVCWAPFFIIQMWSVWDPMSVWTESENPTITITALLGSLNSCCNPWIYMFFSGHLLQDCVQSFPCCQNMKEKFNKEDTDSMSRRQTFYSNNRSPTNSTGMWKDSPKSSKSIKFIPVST

[3] = target: T1, 5-hydroxytryptamine receptor 1A (Homo sapiens, UniProt P08908); type: functional, cell-based
T1 sequence (P08908 whole entry): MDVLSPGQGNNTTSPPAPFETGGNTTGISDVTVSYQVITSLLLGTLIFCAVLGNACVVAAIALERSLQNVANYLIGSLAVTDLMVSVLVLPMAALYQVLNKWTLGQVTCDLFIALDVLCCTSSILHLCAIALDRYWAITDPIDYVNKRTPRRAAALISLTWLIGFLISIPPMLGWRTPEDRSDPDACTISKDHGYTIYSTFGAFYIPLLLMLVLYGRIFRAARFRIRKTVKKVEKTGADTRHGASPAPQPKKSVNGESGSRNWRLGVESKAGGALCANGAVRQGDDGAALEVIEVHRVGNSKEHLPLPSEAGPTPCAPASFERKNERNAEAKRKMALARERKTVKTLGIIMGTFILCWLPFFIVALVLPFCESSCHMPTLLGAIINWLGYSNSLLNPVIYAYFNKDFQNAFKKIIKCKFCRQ

[4] = target: Gamma-aminobutyric acid receptor subunit alpha-1 (Rattus norvegicus, UniProt P62813)
Gamma-aminobutyric acid receptor subunit alpha-1, sequence (P62813 whole entry): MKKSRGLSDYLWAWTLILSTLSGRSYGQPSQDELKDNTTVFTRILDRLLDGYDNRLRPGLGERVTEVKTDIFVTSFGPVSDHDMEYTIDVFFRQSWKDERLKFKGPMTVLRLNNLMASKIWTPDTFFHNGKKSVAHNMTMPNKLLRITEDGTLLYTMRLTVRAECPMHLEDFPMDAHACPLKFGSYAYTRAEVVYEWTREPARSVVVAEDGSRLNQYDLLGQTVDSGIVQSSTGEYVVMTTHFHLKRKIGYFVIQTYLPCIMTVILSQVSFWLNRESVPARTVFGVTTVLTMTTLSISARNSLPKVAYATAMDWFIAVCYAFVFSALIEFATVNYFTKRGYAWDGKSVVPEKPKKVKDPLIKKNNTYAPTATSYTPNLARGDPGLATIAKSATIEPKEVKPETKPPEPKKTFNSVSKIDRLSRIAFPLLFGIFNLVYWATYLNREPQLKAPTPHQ

Histamine H2 receptor = Histamine H2 receptor (Homo sapiens, UniProt P25021); type: functional, cell-based
Histamine H2 receptor, sequence (P25021 whole entry): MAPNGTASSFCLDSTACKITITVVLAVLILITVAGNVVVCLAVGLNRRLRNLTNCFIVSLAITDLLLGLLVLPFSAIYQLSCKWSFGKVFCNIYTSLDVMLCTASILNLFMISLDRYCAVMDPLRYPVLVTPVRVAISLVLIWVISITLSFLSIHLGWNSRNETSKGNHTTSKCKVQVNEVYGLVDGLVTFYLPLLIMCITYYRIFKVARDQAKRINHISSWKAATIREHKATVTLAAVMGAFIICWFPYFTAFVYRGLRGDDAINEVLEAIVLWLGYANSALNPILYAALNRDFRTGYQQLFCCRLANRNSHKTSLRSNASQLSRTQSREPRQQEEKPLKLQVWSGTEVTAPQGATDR

Progesterone receptor [5] = target: T2, Progesterone receptor (Homo sapiens, UniProt P06401); type: functional
T2 sequence (P06401 whole entry): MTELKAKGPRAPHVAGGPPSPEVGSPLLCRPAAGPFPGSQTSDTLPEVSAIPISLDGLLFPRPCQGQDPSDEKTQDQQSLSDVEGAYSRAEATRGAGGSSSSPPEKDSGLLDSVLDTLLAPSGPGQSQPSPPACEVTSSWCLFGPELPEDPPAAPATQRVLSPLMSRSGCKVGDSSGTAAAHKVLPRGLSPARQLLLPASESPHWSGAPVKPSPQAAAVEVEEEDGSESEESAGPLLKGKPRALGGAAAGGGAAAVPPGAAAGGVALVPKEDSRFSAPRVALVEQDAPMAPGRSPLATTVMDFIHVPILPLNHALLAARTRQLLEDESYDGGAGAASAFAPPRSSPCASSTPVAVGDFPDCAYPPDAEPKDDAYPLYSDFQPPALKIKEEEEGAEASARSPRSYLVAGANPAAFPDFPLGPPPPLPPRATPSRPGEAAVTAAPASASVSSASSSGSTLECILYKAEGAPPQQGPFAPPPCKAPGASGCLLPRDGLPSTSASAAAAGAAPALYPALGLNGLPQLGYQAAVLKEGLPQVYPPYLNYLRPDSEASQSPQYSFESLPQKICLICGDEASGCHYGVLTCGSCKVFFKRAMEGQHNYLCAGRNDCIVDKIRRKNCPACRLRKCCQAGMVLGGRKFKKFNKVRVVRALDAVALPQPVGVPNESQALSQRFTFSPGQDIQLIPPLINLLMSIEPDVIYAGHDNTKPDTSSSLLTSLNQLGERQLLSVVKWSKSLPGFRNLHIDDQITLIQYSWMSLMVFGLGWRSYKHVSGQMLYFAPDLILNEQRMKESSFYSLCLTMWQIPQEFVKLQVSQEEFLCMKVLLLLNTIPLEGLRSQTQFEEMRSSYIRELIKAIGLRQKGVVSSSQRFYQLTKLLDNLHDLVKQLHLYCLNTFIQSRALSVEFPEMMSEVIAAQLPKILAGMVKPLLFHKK

Progesterone receptor [6] = target: T2, Progesterone receptor; type: functional; remark: listed apart in the source
Histamine H3 receptor = Histamine H3 receptor (Homo sapiens, UniProt Q9Y5N1)
Histamine H3 receptor, sequence (Q9Y5N1 whole entry): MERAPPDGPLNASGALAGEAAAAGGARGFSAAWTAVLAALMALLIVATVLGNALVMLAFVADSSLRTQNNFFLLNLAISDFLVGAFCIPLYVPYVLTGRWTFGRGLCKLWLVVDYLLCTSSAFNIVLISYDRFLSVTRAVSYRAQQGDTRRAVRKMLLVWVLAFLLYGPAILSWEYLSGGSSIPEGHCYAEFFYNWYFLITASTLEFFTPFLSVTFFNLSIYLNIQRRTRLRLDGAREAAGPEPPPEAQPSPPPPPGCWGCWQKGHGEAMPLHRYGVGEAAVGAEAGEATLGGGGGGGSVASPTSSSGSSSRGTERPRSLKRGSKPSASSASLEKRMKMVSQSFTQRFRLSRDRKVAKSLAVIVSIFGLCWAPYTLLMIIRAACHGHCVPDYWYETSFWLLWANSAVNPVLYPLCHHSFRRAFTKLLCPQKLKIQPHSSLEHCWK

Acetylcholinesterase = Acetylcholinesterase (Homo sapiens, UniProt P22303); type: functional
Acetylcholinesterase, sequence (P22303 whole entry): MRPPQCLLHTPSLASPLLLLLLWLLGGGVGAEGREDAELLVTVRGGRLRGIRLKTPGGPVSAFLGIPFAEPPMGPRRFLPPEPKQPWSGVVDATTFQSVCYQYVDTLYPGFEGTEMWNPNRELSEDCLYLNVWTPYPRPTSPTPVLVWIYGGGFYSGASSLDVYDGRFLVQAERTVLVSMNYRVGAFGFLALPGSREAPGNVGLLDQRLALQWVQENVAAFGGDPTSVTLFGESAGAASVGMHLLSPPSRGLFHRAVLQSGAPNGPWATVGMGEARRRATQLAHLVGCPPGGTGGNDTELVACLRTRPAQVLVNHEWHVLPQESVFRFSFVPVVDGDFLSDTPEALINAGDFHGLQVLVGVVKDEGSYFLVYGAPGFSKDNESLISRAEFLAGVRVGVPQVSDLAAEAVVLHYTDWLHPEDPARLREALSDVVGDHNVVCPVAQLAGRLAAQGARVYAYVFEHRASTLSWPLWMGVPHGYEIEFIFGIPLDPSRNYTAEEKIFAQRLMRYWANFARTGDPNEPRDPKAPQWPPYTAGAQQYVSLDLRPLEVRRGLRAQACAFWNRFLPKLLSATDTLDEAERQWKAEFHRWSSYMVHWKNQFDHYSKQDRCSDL

[7] = target: T3, Alpha-2A adrenergic receptor (Homo sapiens, UniProt P08913)
T3 sequence (P08913 whole entry): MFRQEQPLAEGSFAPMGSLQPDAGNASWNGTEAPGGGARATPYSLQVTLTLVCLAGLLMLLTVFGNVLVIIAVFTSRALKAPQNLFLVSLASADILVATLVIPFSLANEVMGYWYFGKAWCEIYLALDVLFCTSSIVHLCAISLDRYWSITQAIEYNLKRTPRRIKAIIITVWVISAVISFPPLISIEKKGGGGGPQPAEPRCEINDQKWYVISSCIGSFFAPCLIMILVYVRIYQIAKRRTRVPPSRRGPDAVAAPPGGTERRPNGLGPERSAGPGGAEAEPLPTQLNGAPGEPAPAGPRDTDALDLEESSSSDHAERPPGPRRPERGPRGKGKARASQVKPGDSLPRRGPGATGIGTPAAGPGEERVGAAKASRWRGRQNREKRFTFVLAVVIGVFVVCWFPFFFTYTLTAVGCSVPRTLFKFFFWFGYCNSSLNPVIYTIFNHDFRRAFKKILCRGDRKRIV

Progesterone receptor [8] = target: T2, Progesterone receptor
Thromboxane A2 receptor = target: T4, Thromboxane A2 receptor (Homo sapiens, UniProt P21731); type: functional, cell-based
T4 sequence (P21731 whole entry): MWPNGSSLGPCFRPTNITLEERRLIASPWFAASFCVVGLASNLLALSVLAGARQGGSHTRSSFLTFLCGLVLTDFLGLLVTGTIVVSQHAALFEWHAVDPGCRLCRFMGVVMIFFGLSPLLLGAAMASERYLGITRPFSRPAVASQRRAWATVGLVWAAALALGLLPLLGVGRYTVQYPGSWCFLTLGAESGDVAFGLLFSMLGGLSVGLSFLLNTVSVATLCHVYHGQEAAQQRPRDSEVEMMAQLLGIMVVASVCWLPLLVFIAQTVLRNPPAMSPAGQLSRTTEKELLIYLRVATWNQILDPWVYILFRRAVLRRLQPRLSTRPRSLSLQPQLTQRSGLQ

Prothrombin = Prothrombin (Homo sapiens, UniProt P00734); type: functional
[9] = target: 5-hydroxytryptamine receptor 2B (Homo sapiens, UniProt P41595); type: functional, cell-based
5-hydroxytryptamine receptor 2B, sequence (P41595 whole entry): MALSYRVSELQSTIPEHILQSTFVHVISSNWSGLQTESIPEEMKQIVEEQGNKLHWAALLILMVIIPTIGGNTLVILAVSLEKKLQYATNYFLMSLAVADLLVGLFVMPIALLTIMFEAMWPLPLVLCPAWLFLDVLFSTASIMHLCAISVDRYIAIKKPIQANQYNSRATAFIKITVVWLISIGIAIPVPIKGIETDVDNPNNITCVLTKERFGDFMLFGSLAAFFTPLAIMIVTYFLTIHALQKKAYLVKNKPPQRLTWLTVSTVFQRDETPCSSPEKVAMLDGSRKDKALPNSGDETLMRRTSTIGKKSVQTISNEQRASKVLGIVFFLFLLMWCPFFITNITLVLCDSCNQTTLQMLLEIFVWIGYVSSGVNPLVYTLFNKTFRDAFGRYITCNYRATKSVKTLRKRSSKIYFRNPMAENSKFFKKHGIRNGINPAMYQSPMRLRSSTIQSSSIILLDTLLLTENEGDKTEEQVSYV

[10] = target: Prostaglandin G/H synthase 1 (Homo sapiens, UniProt P23219); type: functional
Also: assay procedure not described here.

Voltage-dependent L-type calcium channel subunit alpha-1C, sequence (P22002 whole entry): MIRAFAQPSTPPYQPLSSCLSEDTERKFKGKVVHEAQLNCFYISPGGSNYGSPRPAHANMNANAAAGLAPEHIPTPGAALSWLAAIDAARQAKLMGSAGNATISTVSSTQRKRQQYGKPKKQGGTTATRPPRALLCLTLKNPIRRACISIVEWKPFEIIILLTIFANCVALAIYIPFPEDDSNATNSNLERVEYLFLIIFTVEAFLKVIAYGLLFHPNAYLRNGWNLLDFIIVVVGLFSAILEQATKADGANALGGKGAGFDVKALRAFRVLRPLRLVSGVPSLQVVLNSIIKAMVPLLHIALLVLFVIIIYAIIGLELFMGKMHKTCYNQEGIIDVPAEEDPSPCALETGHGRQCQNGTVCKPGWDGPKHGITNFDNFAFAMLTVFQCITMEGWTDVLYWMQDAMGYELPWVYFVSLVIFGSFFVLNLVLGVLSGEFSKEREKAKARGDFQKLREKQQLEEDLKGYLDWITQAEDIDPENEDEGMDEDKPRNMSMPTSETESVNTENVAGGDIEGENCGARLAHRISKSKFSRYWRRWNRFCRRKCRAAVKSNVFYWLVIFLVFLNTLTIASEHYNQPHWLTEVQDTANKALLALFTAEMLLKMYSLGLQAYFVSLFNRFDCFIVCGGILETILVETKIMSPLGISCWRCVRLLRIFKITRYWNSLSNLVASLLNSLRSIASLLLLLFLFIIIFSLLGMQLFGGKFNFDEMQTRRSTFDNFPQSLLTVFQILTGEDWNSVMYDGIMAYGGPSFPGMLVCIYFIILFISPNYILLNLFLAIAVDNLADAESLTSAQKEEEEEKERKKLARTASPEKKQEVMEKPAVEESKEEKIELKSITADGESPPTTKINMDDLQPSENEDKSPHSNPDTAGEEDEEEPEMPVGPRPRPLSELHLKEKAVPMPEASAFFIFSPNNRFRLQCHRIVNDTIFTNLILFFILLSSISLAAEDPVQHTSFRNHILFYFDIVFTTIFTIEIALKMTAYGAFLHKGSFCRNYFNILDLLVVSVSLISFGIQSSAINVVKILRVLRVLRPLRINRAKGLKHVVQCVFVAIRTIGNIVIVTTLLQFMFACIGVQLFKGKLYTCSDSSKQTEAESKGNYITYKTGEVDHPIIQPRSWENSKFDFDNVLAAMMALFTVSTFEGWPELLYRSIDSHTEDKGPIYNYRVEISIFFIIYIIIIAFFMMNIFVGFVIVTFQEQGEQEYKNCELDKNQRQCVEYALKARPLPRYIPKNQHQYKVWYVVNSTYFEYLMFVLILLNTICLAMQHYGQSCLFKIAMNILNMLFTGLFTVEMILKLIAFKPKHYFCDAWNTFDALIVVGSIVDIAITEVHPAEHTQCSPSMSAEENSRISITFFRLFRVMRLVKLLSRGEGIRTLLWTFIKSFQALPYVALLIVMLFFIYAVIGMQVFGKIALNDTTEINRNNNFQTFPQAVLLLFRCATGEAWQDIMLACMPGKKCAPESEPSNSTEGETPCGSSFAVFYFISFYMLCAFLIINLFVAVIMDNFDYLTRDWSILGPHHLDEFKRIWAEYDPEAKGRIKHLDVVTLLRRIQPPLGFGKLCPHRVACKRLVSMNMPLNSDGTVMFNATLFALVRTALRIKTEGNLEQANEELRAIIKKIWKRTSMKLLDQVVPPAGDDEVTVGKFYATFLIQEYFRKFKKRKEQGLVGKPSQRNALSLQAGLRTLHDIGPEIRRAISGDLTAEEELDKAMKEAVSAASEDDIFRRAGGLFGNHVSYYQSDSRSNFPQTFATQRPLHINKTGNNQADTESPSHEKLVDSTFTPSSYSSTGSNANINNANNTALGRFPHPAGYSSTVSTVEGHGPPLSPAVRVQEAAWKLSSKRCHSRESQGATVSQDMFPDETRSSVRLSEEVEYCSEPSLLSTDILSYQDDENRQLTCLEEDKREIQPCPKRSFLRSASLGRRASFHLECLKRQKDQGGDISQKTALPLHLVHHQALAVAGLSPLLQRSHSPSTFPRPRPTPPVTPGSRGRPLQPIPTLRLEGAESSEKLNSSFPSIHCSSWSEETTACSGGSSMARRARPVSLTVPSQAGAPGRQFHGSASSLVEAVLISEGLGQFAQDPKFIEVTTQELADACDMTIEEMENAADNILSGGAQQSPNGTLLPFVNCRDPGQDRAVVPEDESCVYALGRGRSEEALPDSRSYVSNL

Structure (SMILES)	AC50 [1]	AC50 [2]	AC50 (Vasopressin V1a receptor)	AC50 [3]	AC50 [4]	AC50 (Histamine H2 receptor)	AC50 (Progesterone receptor [5])	AC50 (Progesterone receptor [6])	AC50 (Histamine H3 receptor)	AC50 (Acetylcholinesterase)	AC50 [7]	AC50 (Progesterone receptor [8])	AC50 (Thromboxane A2 receptor)	AC50 (Prothrombin)	AC50 [9]	AC50 [10]
CC[N+](CC)(CCNC(=O)C(=O)NCC[N+](CC)(CC)Cc1ccccc1Cl)Cc1ccccc1Cl [AMBENONIUM]	> 30 µM	> 30 µM	> 30 µM	> 30 µM	> 30 µM	> 30 µM	> 30 µM	> 30 µM	–	–	–	–	–	–	–	–
CC(C)/N=c1\cc2n(-c3ccc(Cl)cc3)c3ccccc3nc-2cc1Nc1ccc(Cl)cc1 [CLOFAZIMINE]	5 µM	22 µM	> 30 µM	> 30 µM	29 µM	> 30 µM	> 30 µM	> 30 µM	–	–	–	–	–	–	–	–
CC(C)C[C@H](NC(=O)[C@H](Cc1ccccc1)NC(=O)c1cnccn1)B(O)O [BORTEZOMIB]	> 30 µM	> 30 µM	> 30 µM	> 30 µM	> 30 µM	> 30 µM	> 30 µM	> 30 µM	–	–	–	–	–	–	–	–
CC(=O)SCC(Cc1ccccc1)C(=O)NCC(=O)OCc1ccccc1 (configuration not stated) [RACECADOTRIL]	28 µM	> 30 µM	> 30 µM	> 30 µM	> 30 µM	> 30 µM	> 30 µM	> 30 µM	–	–	–	–	–	–	–	–
CS(=O)(=O)Nc1ccc([N+](=O)[O-])cc1Oc1ccccc1 [NIMESULIDE]	–	> 30 µM	> 30 µM	–	> 30 µM	> 30 µM	> 30 µM	> 30 µM	> 30 µM	> 30 µM	> 30 µM	> 30 µM	> 30 µM	> 30 µM	> 30 µM	–
Cc1c(C)c2c(c(C)c1O)CCC(C)(COc1ccc(CC3SC(=O)NC3=O)cc1)O2 (configuration not stated) [TROGLITAZONE]	21 µM	> 30 µM	> 30 µM	6.9 µM	> 30 µM	> 30 µM	16 µM	> 30 µM	> 30 µM	> 30 µM	10.3 µM	3.55 µM	–	> 30 µM	> 30 µM	5.93 µM
C[C@H](Cn1cnc2c(N)ncnc21)OCP(=O)(O)O [TENOFOVIR ANHYDROUS]	> 30 µM	> 30 µM	> 30 µM	> 30 µM	> 30 µM	> 30 µM	> 30 µM	> 30 µM	–	–	–	–	–	–	–	–
C[C@H](Nc1ncnc2[nH]cnc12)c1cc2cccc(Cl)c2c(=O)n1-c1ccccc1 [DUVELISIB]	–	–	> 30 µM	> 30 µM	–	–	> 30 µM	> 30 µM	> 30 µM	> 30 µM	> 30 µM	> 30 µM	15.1 µM	> 30 µM	> 30 µM	> 30 µM
CN(C)CCC=C1c2ccccc2CCc2ccccc21 [AMITRIPTYLINE]	> 10 µM	> 10 µM	> 30 µM	–	> 10 µM	–	> 30 µM	> 30 µM	> 30 µM	> 30 µM	1.27 µM	> 30 µM	26.3 µM	> 30 µM	–	> 30 µM
O=C(c1ccccc1)c1ccc2n1CCC2C(=O)O (configuration not stated) [KETOROLAC]	> 30 µM	> 30 µM	> 10 µM	> 10 µM	> 30 µM	> 30 µM	> 10 µM	> 10 µM	–	–	–	–	–	–	–	–
NCC1(CC(=O)O)CCCCC1 [GABAPENTIN]	> 10 µM	> 10 µM	> 30 µM	> 30 µM	> 10 µM	> 10 µM	> 30 µM	> 30 µM	> 30 µM	> 30 µM	> 30 µM	> 30 µM	> 30 µM	> 30 µM	> 30 µM	> 30 µM
O=C1[C@@H]2[C@H]3CC[C@H](C3)[C@@H]2C(=O)N1C[C@@H]1CCCC[C@H]1CN1CCN(c2nsc3ccccc23)CC1 [LURASIDONE]	–	–	> 30 µM	–	–	–	> 30 µM	> 30 µM	> 30 µM	> 30 µM	–	> 30 µM	> 30 µM	> 30 µM	> 30 µM	> 30 µM
